Measurements as given in patent US20140243319A1, “TREATMENTS TARGETING GAMMA-SYNUCLEIN EXPRESSION LEVELS” (GEORGETOWN UNIVERSITY, priority 2011, published 2014).

Tests used:
[1] = tested on: cells that expressed γ-Syn; experiment: MTT cell death assay in cells that express γ-Syn; assay type: cell-based
From the text: Cells were selected that expressed γ-Syn.

T47D cells = experiment: MTT cell viability assay in T47D breast cancer cells
HCT 116 = experiment: MTT cell viability assay in HCT 116 cells; assay type: cell-based; details: Homo sapiens, read-out: IC50 values of cell death
PC cells = assay type: cell-based; details: DMI at clinically relevant concentrations
γ-Syn [2] = experiment: γ-Syn protein expression in selected γ-Syn expressing cells; assay type: cell-based; details: 48 h
From the text: Cells were selected that expressed γ-Syn. […] We next measured cell death by MTT assays and found a direct correlation between loss of γ-Syn protein expression and cell death.

HT-29 = experiment: MTT cell viability assay in HT-29 cells; assay type: cell-based; details: Homo sapiens, read-out: IC50 values of cell death
[3] = tested on: cells that did not express any γ-Syn; experiment: MTT cell death assay in cells that do not express γ-Syn; assay type: cell-based; details: cells without γ-Syn expression, 50 μM DMI
BxPC-3 = experiment: MTT cell viability assay in BxPC-3 pancreatic cancer cells; assay type: cell-based; details: Homo sapiens; BxPC-3 cells; read-out: IC50 values of cell death
Colo-357 = experiment: MTT cell viability assay in Colo-357 pancreatic cancer cells; assay type: cell-based; details: Homo sapiens, COLO357; Colo-357 cells; read-out: IC50 values of cell death
ASPC-1 = experiment: MTT cell viability assay in ASPC-1 pancreatic cancer cells; assay type: cell-based; details: Homo sapiens, ASPC1; ASPC-1 cells; read-out: IC50 values of cell death
γ-Syn [4] = experiment: Western blot of γ-Syn protein in brain of WKY rats; assay type: in vivo, rat; details: brains of WKY rats, FIG. 3
From the text: In brain, γ-Syn is expressed in presynaptic terminals of monoaminergic neurons, and our lab has shown that this protein can regulate the function of norepinephrine and serotonin transporters. Unlike α-Syn, whose role in neurodegenerative diseases such as Parkinson's disease is well established, a role for γ-Syn in neurodegeneration is not known. γ-Syn is overexpressed in the frontal cortex of the WKY, a rat model of depression. […] The ability of γ-Syn to bind tightly to MTs may be one mechanism by which its overexpression in carcinomas protects cells from the MT actions of chemotherapeutic agents, for example, taxol, nocodazole, vinblastine and colchicine.

γ-Syn [5] = experiment: Western blot of γ-Syn levels in T47D cells; assay type: cell-based; details: for decrease of γ-Syn levels: 48 h pretreatment, Western blot
Procedure: Various cancer cell lines were tested for expression of γ-Syn by Western blots. (FIG. 4) Two breast carcinoma cell lines were tested for γ-Syn expression by Western blots, and human brain (hIFG) was used as a positive control.

γ-Syn [6] = details: rat depression model, Jeannotte et al. 2009; cited from earlier work
γ-Syn [7] = experiment: γ-Syn expression in pancreatic cancer (PC) cells; assay type: cell-based; details: clinically relevant concentrations
SK-BR-3 = experiment: MTT cell viability assay in SK-BR-3 cells; assay type: cell-based; details: Homo sapiens, read-out: IC50 values of cell death
A549 = experiment: MTT cell viability assay in A549 cells; assay type: cell-based; details: Homo sapiens, read-out: IC50 values of cell death
WKY rats [8] = experiment: Depression model, behavior of WKY rats; assay type: in vivo, rat; details: for mobility and climbing behaviors: WKY rats, chronic administration, FIG. 1
DU145 = experiment: MTT cell viability assay in DU145 cells; assay type: cell-based; details: Homo sapiens, DU-145, read-out: IC50 values of cell death
WKY rats [9] = details: rat depression model, Jeannotte et al. 2009; cited from earlier work
HeLa = experiment: MTT cell viability assay in HeLa cells; assay type: cell-based; details: Homo sapiens, read-out: IC50 values of cell death
MD-MB-231 = experiment: MTT cell viability assay in MD-MB-231 cells; assay type: cell-based; details: read-out: IC50 values of cell death
[10] = T47D cells, 48 h, 25 μM single agent, MTT

## CC(=O)O[C@H]1C(=O)[C@@]2(C)[C@H]([C@H](OC(=O)c3ccccc3)[C@]3(O)C[C@H](OC(=O)[C@H](O)[C@@H](NC(=O)c4ccccc4)c4ccccc4)C(C)=C1C3(C)C)[C@]1(OC(C)=O)CO[C@@H]1C[C@@H]2O [taxol, Paclitaxel]
[1]; each compound used alone
  cell death: ~15%
T47D cells; 10 μM of either drug alone
  cell viability: ~80%
T47D cells; T47D cells expressing γ-Syn
  sensitivity of cells to taxol (in words): resistant to taxol treatment
T47D cells; [10]
  cell viability: 52%

## CNCCCN1c2ccccc2CCc2ccccc21 [DMI, desipramine]
HCT 116
  IC50: 43 ± 3 µM
[1]; each compound used alone
  cell death: ~15%
[1]; γ-Syn expressing cells, 50 μM DMI, MTT
  cell death: > 90%
PC cells
  cell death: > 60%
γ-Syn [2]; 0-50 μM DMI
  γ-Syn protein expression (in words): dose-dependent decrease in γ-Syn protein expression
γ-Syn [2]; 50 μM DMI
  γ-Syn protein expression decreased: > 85%
T47D cells; 10 μM of either drug alone
  cell viability: ~80%
T47D cells; [10]
  cell viability: 58%
T47D cells; T47D cells, 48 h, 50 μM DMI alone, MTT (data not shown)
  cell viability: ~5%
T47D cells; read-out: IC50 values of cell death, T47D cells
  IC50: 35 µM
HT-29
  IC50: 38 µM
[3]
  cell death (in words): no cell death
BxPC-3
  IC50: > 50 µM
Colo-357
  IC50: > 50 µM
ASPC-1
  IC50: > 50 µM
γ-Syn [4]
  γ-Syn protein levels (Western blot): reduced levels of γ-Syn protein
γ-Syn [4]; listed as desipramine
  γ-Syn protein levels (Western blot): reduced
γ-Syn [5]; 10 μM and 50 μM
  γ-Syn levels (in words): reduces γ-Syn levels
γ-Syn [5]; 10 μM DMI
  decrease of γ-Syn levels: 40%
γ-Syn [5]; 50 μM DMI
  decrease of γ-Syn levels: 85%
γ-Syn [6]
  expression levels of γ-Syn: reduces expression levels of γ-Syn
γ-Syn [7]
  γ-Syn expression (in words): reduce γ-Syn expression
SK-BR-3
  IC50: 40 µM
A549
  IC50: > 50 µM
WKY rats [8]; WKY rat, chronic treatment for 2 weeks
  depressive symptoms: relief in the depressive symptoms
WKY rats [8]
  mobility and climbing behaviors: improvements in mobility and climbing behaviors
DU145
  IC50: > 50 µM
WKY rats [9]
  depressive state: relieves their depressive state
HeLa
  IC50: 43 µM
MD-MB-231
  IC50: > 50 µM

## NNCCc1ccccc1 [phenelezine]
WKY rats [8]
  mobility and climbing behaviors: improvements in mobility and climbing behaviors
